Measured values from ChEMBL document CHEMBL5505979, “Novel aminothiazoximone-corbelled ethoxycarbonylpyrimidones with antibiofilm activity to conquer Gram-negative bacteria through potential multitargeting effects” (Eur J Med Chem, 2024).
In brackets after ≈: the same amount, converted by molar mass. Activity calls are given as the source filed them. No cut-off for these calls is given here.

Key:
Pseudomonas aeruginosa [1] = test: Anti-bacterial activity against Pseudomonas aeruginosa ST235 assessed as inhibition of bacterial growth; format: functional; conditions: Pseudomonas aeruginosa, ST235; read-out: MIC
Acinetobacter baumannii [2] = test: Anti-bacterial activity against Acinetobacter baumannii assessed as growth inhibition by measuring optical density measured at 1/2 time of MIC in presence of 1/2 times of MIC of norfloxacin by Checkerboard assay (reference value: 0.152); format: functional
Escherichia coli [3] = test: Anti-bacterial activity against Escherichia coli ATCC 25922 assessed as growth inhibition by measuring optical density measured at 1 time of MIC in presence of 1/2 times of MIC of norfloxacin by Checkerboard assay (reference value: 0.125); format: functional
Staphylococcus aureus [4] = test: Anti-bacterial activity against Staphylococcus aureus ATCC 25923 assessed as inhibition of bacterial growth; format: functional; conditions: Staphylococcus aureus, ATCC 25923; read-out: MIC
Escherichia coli [5] = test: Reduction in metabolic activity of Escherichia coli ATCC 25922 at MIC concentration relative to control; format: functional; parameters: scale not given: the % may be the effect or the level left
Escherichia coli [6] = test: Antibiofilm activity against Escherichia coli ATCC 25922 assessed as inhibition rate of bio-film formation at 0.5 times of MIC concentration by Crystal violet assay relative to control; format: functional
Acinetobacter baumannii [7] = test: Anti-bacterial activity against Acinetobacter baumannii assessed as growth inhibition by measuring optical density measured at 4 time of MIC in presence of 1/4 times of MIC of norfloxacin by Checkerboard assay (reference value: 0.152); format: functional
Cell membrane = test: Induction of membrane damage in Escherichia coli ATCC 25922 assessed as increase in fluorescence intensity at 1 to 4 times of MIC concentration measured after 90 mins by DiSC3 fluorescent probe assay; format: cell membranes
[8] = Hemolysis in human RBC assessed as morphological changes of RBC by measuring intact/smooth surface rounded cell surface at 128 times of MIC concentration for 6 hrs by microscopic analysis; format: toxicity, cell-based; conditions: erythrocyte
Acinetobacter baumannii [9] = test: Anti-bacterial activity against Acinetobacter baumannii assessed as growth inhibition by measuring optical density measured at 1/2 time of MIC in presence of 1/4 times of MIC of norfloxacin by Checkerboard assay (reference value: 0.152); format: functional
Escherichia coli [10] = test: Antibiofilm activity against Escherichia coli ATCC 25922 assessed as inhibition rate of bio-film formation at 8 times of MIC concentration in presence of sodium dodecyl sulfate by Crystal violet assay relative to control; format: functional, organism-based
Escherichia coli [11] = test: Anti-bacterial activity against Escherichia coli ATCC 25922 assessed as growth inhibition by measuring optical density measured at 1/2 time of MIC in presence of 2 times of MIC of norfloxacin by Checkerboard assay (reference value: 0.124); format: functional
Acinetobacter baumannii [12] = test: Induction of intracellular ROS accumulation in Acinetobacter baumannii assessed as larger green fluorescence densities at 1/4 to 2 times of MIC by microscopic imaging assay; format: functional, organism-based
Escherichia coli [13] = test: Anti-bacterial activity against Escherichia coli ATCC 25922 assessed as growth inhibition by measuring optical density measured at 2 time of MIC in presence of 2 times of MIC of norfloxacin by Checkerboard assay (reference value: 0.128); format: functional
Pseudomonas aeruginosa [14] = test: Anti-bacterial activity against Pseudomonas aeruginosa ATCC 15442 assessed as inhibition of bacterial growth; format: functional; conditions: Pseudomonas aeruginosa, ATCC 15442; read-out: MIC
Escherichia coli [15] = test: Anti-bacterial activity against Escherichia coli JM109 assessed as inhibition of bacterial growth; format: functional
Calf thymus DNA = test: Binding affinity to calf thymus DNA assessed as decrease in fluorescence intensity at 530 nm by Acridine Orange based fluorescence spectroscopy; format: nucleic-acid assay; conditions: Bos taurus
Escherichia coli [16] = test: Anti-bacterial activity against Escherichia coli ATCC 25922 assessed as growth inhibition by measuring optical density measured at 4 time of MIC in presence of 2 times of MIC of norfloxacin by Checkerboard assay (reference value: 0.125); format: functional
Pseudomonas aeruginosa [17] = test: Anti-bacterial activity against Pseudomonas aeruginosa CMCC (B) 10104 assessed as inhibition of bacterial growth; format: functional; conditions: Pseudomonas aeruginosa, CMCC (B) 10104; read-out: MIC
Escherichia coli [18] = test: Antibiofilm activity against Escherichia coli ATCC 25922 assessed as inhibition rate of bio-film formation at 8 times of MIC concentration by Crystal violet assay relative to control; format: functional
Acinetobacter baumannii [19] = test: Anti-bacterial activity against Acinetobacter baumannii assessed as growth inhibition by measuring optical density measured at 2 time of MIC in presence of 1 times of MIC of norfloxacin by Checkerboard assay (reference value: 0.155); format: functional
Acinetobacter baumannii [20] = test: Reduction in metabolic activity of Acinetobacter baumannii assessed as biomass of the fluorescent pink change to non-fluorescent blue; format: functional, organism-based
Escherichia coli [21] = test: Induction of intracellular ROS accumulation in Escherichia coli ATCC 25922 assessed as larger green fluorescence densities at 1/4 to 2 times of MIC by microscopic imaging assay; format: functional, organism-based
Candida parapsilosis = test: Anti-fungal activity against Candida parapsilosis assessed as inhibition of fungal growth; format: functional; conditions: Lodderomyces parapsilosis; read-out: MIC
Escherichia coli [22] = test: Anti-bacterial activity against Escherichia coli ATCC 25922 assessed as growth inhibition by measuring optical density measured at 1 time of MIC in presence of 1/4 times of MIC of norfloxacin by Checkerboard assay (reference value: 0.125); format: functional
Acinetobacter baumannii [23] = test: Reduction in metabolic activity of Acinetobacter baumannii assessed as decrease in bacterial lactate dehydrogenase activity at 0.5 to 8 times of MIC concentration; format: functional, organism-based
Escherichia coli [24] = test: Induction of intracellular ROS accumulation in Escherichia coli ATCC 25922 assessed as fluorescence intensity at 1/4 to 2 times of MIC by DCFH-DA staining based assay; format: functional, organism-based
Acinetobacter baumannii [25] = test: Antibiofilm activity against Acinetobacter baumannii assessed as inhibition rate of bio-film formation at 8 times of MIC concentration in presence of sodium dodecyl sulfate by Crystal violet assay relative to control; format: functional, organism-based
Acinetobacter baumannii [26] = test: Anti-bacterial activity against Acinetobacter baumannii assessed as inhibition of bacterial growth measured upto 9 hrs; format: functional, organism-based
Staphylococcus aureus [27] = test: Anti-bacterial activity against methicillin-resistant Staphylococcus aureus N315 assessed as inhibition of bacterial growth; format: functional; conditions: Staphylococcus aureus, N315; read-out: MIC
Escherichia coli [28] = test: Anti-bacterial activity against Escherichia coli ATCC 25922 assessed as growth inhibition by measuring optical density measured at 1 time of MIC in presence of 1/8 times of MIC of norfloxacin by Checkerboard assay (reference value: 0.125); format: functional
Acinetobacter baumannii [29] = test: Anti-bacterial activity against Acinetobacter baumannii assessed as growth inhibition by measuring optical density measured at 1 time of MIC in presence of 1 times of MIC of norfloxacin by Checkerboard assay (reference value: 0.157); format: functional
Escherichia coli [30] = test: Reduction in metabolic activity of Escherichia coli ATCC 25922 assessed as decrease in bacterial lactate dehydrogenase activity at 0.5 to 8 times of MIC concentration; format: functional, organism-based
Escherichia coli [31] = test: Reduction of biofilm virulent factors in Escherichia coli ATCC 25922 assessed as decrease in extracellular polymeric substances (EPS) by measuring optical density at 490 nm at 1 times of MIC concentration by congo red binding assay (reference value: 0.028 to 0.031); format: functional

`CCCCc1nc(Cl)c(C2NC(=O)NC(CN3CCN(C(=O)/C(=N/OC)c4csc(N)n4)CC3)=C2C(=O)OCC)[nH]1` (centres undefined) gave an MIC (Pseudomonas aeruginosa [1]) of 26 µM (≈ 15.8 µg/mL), an OD (Acinetobacter baumannii [2]) of 0.107 and an OD (Escherichia coli [3]) of 0.096. For the same compound, the MIC (Staphylococcus aureus [4]) was 7 µM (≈ 4.26 µg/mL), the Activity (Escherichia coli [5]) was 63.6% and the “inhibition (INH)” value (Escherichia coli [6]) was 28.3%. The OD (Acinetobacter baumannii [7]) was 0.051, the Activity (Cell membrane) was “inactive” and the Activity [8] was “Non-Toxic”. For the same compound, the OD (Acinetobacter baumannii [9]) was 0.119, the Activity (Escherichia coli [10]) was “Active” and the OD (Escherichia coli [11]) was 0.051. For the same compound, the Activity (Acinetobacter baumannii [12]) was “Active”, the OD (Escherichia coli [13]) was 0.052 and the MIC (Pseudomonas aeruginosa [14]) was 26 µM (≈ 15.8 µg/mL). The MIC (Escherichia coli [15]) was 13 µM (≈ 7.91 µg/mL), the Activity (Calf thymus DNA) was “Active” and the OD (Escherichia coli [16]) was 0.051. The MIC (Pseudomonas aeruginosa [17]) was 26 µM (≈ 15.8 µg/mL), the “inhibition (INH)” value (Escherichia coli [18]) was over 70.2% and the OD (Acinetobacter baumannii [19]) was 0.052. The Activity (Acinetobacter baumannii [20]) was “Active”, the Activity (Escherichia coli [21]) was “Active” and the MIC (Candida parapsilosis) was 422 µM (≈ 257 µg/mL). The OD (Escherichia coli [22]) was 0.111, the Activity (Acinetobacter baumannii [23]) was “Active” and the Activity (Escherichia coli [24]) was “Active”. For the same compound, the Activity (Acinetobacter baumannii [25]) was “Active”, the Activity (Acinetobacter baumannii [26]) was “Dose-Dependent Effect” and the MIC (Staphylococcus aureus [27]) was 26 µM (≈ 15.8 µg/mL). The OD (Escherichia coli [28]) was 0.121, the OD (Acinetobacter baumannii [29]) was 0.052 and the Activity (Escherichia coli [30]) was “Active”. The OD (Escherichia coli [31]) was 0.071.
